Species: Bos taurus
Assay: Binding affinity on adrenal cortex microsomes
Assay type: functional

Kd [µM] | Compound
4 | O=P(O)(O)O[C@@H]1CC[C@@H](OP(=O)(O)O)[C@H](OP(=O)(O)O)C1
1.6 | O=P(O)(O)O[C@@H]1[C@H](O)[C@H](O)[C@@H](OP(=O)(O)O)[C@H](OP(=O)(O)O)[C@H]1F
0.01 | O=P(O)(O)O[C@@H]1[C@H](O)[C@H](O)[C@@H](OP(=O)(O)O)[C@H](OP(=O)(O)O)[C@H]1O [INS(1,4,5)P3]
